Literature values in PubChem BioAssay AID1259409 (Chemical Carcinogenesis Research Information System (CCRIS), 2018).
Several values for one entry are separate records, joined by “and”; a condition that tells them apart may be missing. Equal entries are not always repeated.

Tested on: rodent chemically induced tumor inhibition, incidence and multiplicity
Assay: CCRIS tumor inhibitor studies
Conditions: for tumour outcome (control, treated, inhibition, significance): Species: MOUSE; for outcome: Carcinogen: 4-NITROQUINOLINE 1-OXIDE [56-57-5], Route [Inhibitor]: ORAL (DIET), Species: RAT, Dose [Carcinogen]: 20 PPM FOR 8 WKS STARTING AT 7 WKS OF AGE (STUDY DURATION: 32 WKS)

SMILES: NC(=O)NO
- tumour outcome (control, treated, inhibition, significance) (Carcinogen: 7,12-DIMETHYLBENZ[A]ANTHRACENE, 57-97-6, Dose [Inhibitor]: 0, 0.5 MG/G BW IN 0.9% SALINE ONCE 1 HR PRIOR TO FIRST PROMOTER DOSE (STUDY DURATION: 22 WK), Route [Inhibitor]: INTRAPERITONEAL, Strain/Sex: NMRI/FEMALE, Target Tissue: Type of Lesion: SKIN: PAPILLOMA, Dose [Carcinogen]: 50 UG/G BW IN SESAME OIL): 95%, 79%, 17%, not significant
- tumour outcome (control, treated, inhibition, significance) (Carcinogen: 7,12-DIMETHYLBENZ[A]ANTHRACENE, 57-97-6, Dose [Inhibitor]: 0, 0.5 MG/G BW IN 0.9% SALINE ONCE 6 HR POST FIRST PROMOTER DOSE (STUDY DURATION: 22 WK), Route [Inhibitor]: INTRAPERITONEAL, Strain/Sex: NMRI/FEMALE, Target Tissue: Type of Lesion: SKIN: PAPILLOMA, Dose [Carcinogen]: 50 UG/G BW IN SESAME OIL): 95%, 65%, 32%, not calculated
- tumour outcome (control, treated, inhibition, significance) (Carcinogen: 7,12-DIMETHYLBENZ[A]ANTHRACENE, 57-97-6, Dose [Inhibitor]: 0, 0.5 MG/G BW IN 0.9% SALINE ONCE 12 HR POST FIRST PROMOTER DOSE (STUDY DURATION: 22 WK), Route [Inhibitor]: INTRAPERITONEAL, Strain/Sex: NMRI/FEMALE, Target Tissue: Type of Lesion: SKIN: PAPILLOMA, Dose [Carcinogen]: 50 UG/G BW IN SESAME OIL): 95%, 60%, 37%, not calculated and 95%, 59%, 38%, not calculated
- tumour outcome (control, treated, inhibition, significance) (Carcinogen: 7,12-DIMETHYLBENZ[A]ANTHRACENE, 57-97-6, Dose [Inhibitor]: 0, 0.5 MG/G BW IN 0.9% SALINE ONCE 18 HR POST FIRST PROMOTER DOSE (STUDY DURATION: 22 WK), Route [Inhibitor]: INTRAPERITONEAL, Strain/Sex: NMRI/FEMALE, Target Tissue: Type of Lesion: SKIN: PAPILLOMA, Dose [Carcinogen]: 50 UG/G BW IN SESAME OIL): 95%, 33%, 65%, not calculated and 95%, 30%, 68%, not calculated and 93%, 33%, 65%, not calculated
- tumour outcome (control, treated, inhibition, significance) (Carcinogen: 7,12-DIMETHYLBENZ[A]ANTHRACENE, 57-97-6, Dose [Inhibitor]: 0, 0.5 MG/G BW IN 0.9% SALINE ONCE 24 HR POST FIRST PROMOTER DOSE (STUDY DURATION: 22 WK), Route [Inhibitor]: INTRAPERITONEAL, Strain/Sex: NMRI/FEMALE, Target Tissue: Type of Lesion: SKIN: PAPILLOMA, Dose [Carcinogen]: 50 UG/G BW IN SESAME OIL): 95%, 39%, 59%, not calculated and 95%, 45%, 53%, not calculated
- tumour outcome (control, treated, inhibition, significance) (Carcinogen: 7,12-DIMETHYLBENZ[A]ANTHRACENE, 57-97-6, Dose [Inhibitor]: 0, 0.5 MG/G BW IN 0.9% SALINE ONCE 48 HR POST FIRST PROMOTER DOSE (STUDY DURATION: 22 WK), Route [Inhibitor]: INTRAPERITONEAL, Strain/Sex: NMRI/FEMALE, Target Tissue: Type of Lesion: SKIN: PAPILLOMA, Dose [Carcinogen]: 50 UG/G BW IN SESAME OIL): 95%, 94%, 1%, not significant

SMILES: O[C@@H](CS)[C@@H](O)CS
- tumour outcome (control, treated, inhibition, significance) (Carcinogen: TRANS-5-AMINO-3-[2-(5-NITRO-2-FURYL)VINYL]-1,2,4-OXADIAZOLE;SQL8506, 28754-68-9, Carcinogen: TRANS-5-AMINO-3-[2-(5-NITRO-2-FURYL)VINYL]-1,2,4-OXADIAZOLE;SQL8506, 28754-68-9, Dose [Inhibitor]: 100 MG/KG 16 HR BEFORE THE 1ST CARCINOGEN DOSE FOLLOWED BY ADDITIONAL INJECTIONS IMMEDIATELY BEFORE EACH DOSE OF CARCINO, Route [Inhibitor]: INTRAPERITONEAL, Strain/Sex: CD-1/FEMALE, Target Tissue: Type of Lesion: HEMATOPOIETIC SYSTEM: MYELOID LEUKEMIA, Dose [Carcinogen]: 1 G/KG 2/D FOR 5 D EVERY 4 WK FOR 3 COURSES OF TREATMENT, Promoter: NONE USED): 7/137 (5%), 0/30 (0%), 100%, not calculated
- tumour outcome (control, treated, inhibition, significance) (Carcinogen: TRANS-5-AMINO-3-[2-(5-NITRO-2-FURYL)VINYL]-1,2,4-OXADIAZOLE;SQL8506, 28754-68-9, Carcinogen: TRANS-5-AMINO-3-[2-(5-NITRO-2-FURYL)VINYL]-1,2,4-OXADIAZOLE;SQL8506, 28754-68-9, Dose [Inhibitor]: 100 MG/KG 16 HR BEFORE THE 1ST CARCINOGEN DOSE FOLLOWED BY ADDITIONAL INJECTIONS IMMEDIATELY BEFORE EACH DOSE OF CARCINO, Route [Inhibitor]: INTRAPERITONEAL, Strain/Sex: CD-1/FEMALE, Target Tissue: Type of Lesion: LYMPHOID TISSUE: NONTHYMIC LYMPHOMA, Dose [Carcinogen]: 1 G/KG 2/D FOR 5 D EVERY 4 WK FOR 3 COURSES OF TREATMENT, Promoter: NONE USED): 8/137 (6%), 2/30 (7%), -17%, not calculated
- tumour outcome (control, treated, inhibition, significance) (Carcinogen: TRANS-5-AMINO-3-[2-(5-NITRO-2-FURYL)VINYL]-1,2,4-OXADIAZOLE;SQL8506, 28754-68-9, Carcinogen: TRANS-5-AMINO-3-[2-(5-NITRO-2-FURYL)VINYL]-1,2,4-OXADIAZOLE;SQL8506, 28754-68-9, Dose [Inhibitor]: 100 MG/KG 16 HR BEFORE THE 1ST CARCINOGEN DOSE FOLLOWED BY ADDITIONAL INJECTIONS IMMEDIATELY BEFORE EACH DOSE OF CARCINO, Route [Inhibitor]: INTRAPERITONEAL, Strain/Sex: CD-1/FEMALE, Target Tissue: Type of Lesion: LYMPHOID TISSUE: THYMIC LYMPHOMA, Dose [Carcinogen]: 1 G/KG 2/D FOR 5 D EVERY 4 WK FOR 3 COURSES OF TREATMENT, Promoter: NONE USED): 22/137 (16%), 4/30 (13%), 19%, not calculated
- tumour outcome (control, treated, inhibition, significance) (Carcinogen: TRANS-5-AMINO-3-[2-(5-NITRO-2-FURYL)VINYL]-1,2,4-OXADIAZOLE;SQL8506, 28754-68-9, Carcinogen: TRANS-5-AMINO-3-[2-(5-NITRO-2-FURYL)VINYL]-1,2,4-OXADIAZOLE;SQL8506, 28754-68-9, Dose [Inhibitor]: 100 MG/KG 16 HR BEFORE THE 1ST CARCINOGEN DOSE FOLLOWED BY ADDITIONAL INJECTIONS IMMEDIATELY BEFORE EACH DOSE OF CARCINO, Route [Inhibitor]: INTRAPERITONEAL, Strain/Sex: CD-1/FEMALE, Target Tissue: Type of Lesion: STOMACH: SQUAMOUS CARCINOMA, Dose [Carcinogen]: 1 G/KG 2/D FOR 5 D EVERY 4 WK FOR 3 COURSES OF TREATMENT, Promoter: NONE USED): 60/137 (44%), 18/30 (60%), -36%, not calculated

SMILES: C=C(C)[C@@H](CC=C(C)C)CC12C[C@@H](CC=C(C)C)C(C)(C)C(CC=C(C)C)(C(=O)/C(=C(\O)c3ccc(O)c(O)c3)C1=O)C2=O (stereo partly specified)
- outcome (Dose [Inhibitor]: 0, 100, 500 PPM FOR 8 WKS STARTING AT 6 WKS OF AGE TO 1 WK AFTER CARCINOGEN EXPOSURE (STUDY DURATION: 32 WKS), Dose [Inhibitor]: 0, 100, 500 PPM FOR 8 WKS STARTING AT 6 WKS OF AGE TO 1 WK AFTER CARCINOGEN EXPOSURE (STUDY DURATION: 32 WKS), Strain/Sex: F344/MALE (?,26)/(?,16), Target Tissue: Type of Lesion: TONGUE: SQUAMOUS CELL CARCINOMA): (13/26) 50%; (2/16) 12.5%, 75%, p<0.02; (1/16) 6.3%, 87%, p<0.005
- outcome (Dose [Inhibitor]: 0, 100, 500 PPM FOR 8 WKS STARTING AT 6 WKS OF AGE TO 1 WK AFTER CARCINOGEN EXPOSURE (STUDY DURATION: 32 WKS), Dose [Inhibitor]: 0, 100, 500 PPM FOR 8 WKS STARTING AT 6 WKS OF AGE TO 1 WK AFTER CARCINOGEN EXPOSURE (STUDY DURATION: 32 WKS), Strain/Sex: F344/MALE (?/26)/(?,16), Target Tissue: Type of Lesion: TONGUE: PAPILLOMA): (4/26) 15.4%; (1/16) 6.3%, 59.1%; (1/16) 6.3%, 59.1%
- outcome (Dose [Inhibitor]: 100, 500 PPM STARTING 1 WK AFTER CARCINOGEN FOR 22 WKS (STUDY DURATION: 32 WKS), Strain/Sex: F344/MALE (?,26)/(?,15), Target Tissue: Type of Lesion: TONGUE: PAPILLOMA): (4/26) 15%; (3/15) 20%, -30%; (2/15) 13%, 14%
- outcome (Dose [Inhibitor]: 100, 500 PPM STARTING 1 WK AFTER CARCINOGEN FOR 22 WKS (STUDY DURATION: 32 WKS), Strain/Sex: F344/MALE (?,26)/(?,15), Target Tissue: Type of Lesion: TONGUE: SQUAMOUS CELL CARCINOMA): (13/26) 50%; (1/15) 6.7%, 87%, p<0.05; (0/15) 0%, 100%, p<0.001

SMILES: S=C=NCC(c1ccccc1)c1ccccc1
- tumour outcome (control, treated, inhibition, significance) (Carcinogen: 4-(METHYLNITROSAMINO)-1-(3-PYRIDYL)-1-BUTANONE, 64091-91-4, Dose [Inhibitor]: 0, 1 UMOL ONCE 2 HR PRIOR TO CARCINOGEN DOSE (STUDY DURATION: 16 WK), Route [Inhibitor]: GAVAGE, Strain/Sex: STRAIN-A/FEMALE, Target Tissue: Type of Lesion: LUNG: ADENOMA, Dose [Carcinogen]: 10 UMOL IN 0.1 ML SALINE ONCE, Promoter: NONE USED): 100%, 60%, 40%, p<0.05
- tumour outcome (control, treated, inhibition, significance) (Carcinogen: 4-(METHYLNITROSAMINO)-1-(3-PYRIDYL)-1-BUTANONE, 64091-91-4, Dose [Inhibitor]: 0, 5 UMOL ONCE 2 HR PRIOR TO CARCINOGEN DOSE (STUDY DURATION: 16 WK), Route [Inhibitor]: GAVAGE, Strain/Sex: STRAIN-A/FEMALE, Target Tissue: Type of Lesion: LUNG: ADENOMA, Dose [Carcinogen]: 10 UMOL IN 0.1 ML SALINE ONCE, Promoter: NONE USED): 100%, 45%, 55%, p<0.05
